Measurements: US10144715B2, “Piperazine derivatives as liver X receptor modulators” (priority 2014, dated 2018)
Read-outs that look alike come from different tables or passages of the source.

How the values were obtained:
[1] = target: LXR α LBD protein (Homo sapiens (Human), UniProt Q13133); assay: LXR α radioligand binding assay (SPA, competition with [3H]TO901317); conditions: read-out: LXRα Binding Ki
[2] = target: LXR β LBD protein (Homo sapiens (Human), UniProt P55055); assay: biochemical; assay type: binding
[3] = target: Gal4 DNA binding domain fused to the LBD of LXRα in HEK293 cells (Homo sapiens (Human), UniProt Q13133); assay: LXR luciferase transcriptional reporter gene assay, agonist mode, LXRα; assay type: cell-based; conditions: for EC50: read-out: Cell LXRα EC50
[4] = target: Gal4 DNA binding domain fused to the LBD of LXRβ in HEK293 cells (Homo sapiens (Human), UniProt P55055); assay: cell-based
[5] = Biological Test Example 1, read-out: LXRβ Binding Ki
[6] = Biological Test Example 2, agonist mode

Sequence of LXR β LBD protein (P55055 222-460 limits assumed): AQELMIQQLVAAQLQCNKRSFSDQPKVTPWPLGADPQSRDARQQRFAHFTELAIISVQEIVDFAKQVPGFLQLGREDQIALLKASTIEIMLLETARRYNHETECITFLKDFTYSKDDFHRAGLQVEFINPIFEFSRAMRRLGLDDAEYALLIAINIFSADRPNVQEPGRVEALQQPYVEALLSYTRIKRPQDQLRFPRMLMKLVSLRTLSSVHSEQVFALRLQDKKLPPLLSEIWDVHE
Sequence of Gal4 DNA binding domain fused to the LBD of LXRβ in HEK293 cells (P55055 222-460 limits assumed): as above
Sequence of LXR α LBD protein (Q13133 209-447): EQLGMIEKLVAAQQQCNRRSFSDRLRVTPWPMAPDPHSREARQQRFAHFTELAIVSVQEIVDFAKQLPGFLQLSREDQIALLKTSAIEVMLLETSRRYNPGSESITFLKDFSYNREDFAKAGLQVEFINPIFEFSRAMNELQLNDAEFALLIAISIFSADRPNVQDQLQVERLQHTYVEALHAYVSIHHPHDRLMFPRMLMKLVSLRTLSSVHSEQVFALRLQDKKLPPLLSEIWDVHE
Sequence of Gal4 DNA binding domain fused to the LBD of LXRα in HEK293 cells (Q13133 209-447): as above

Structure (SMILES) | Ki [1] | Ki ([2]; read-out: LXRβ Binding Ki) | Cell LXRα efficacy [3] | EC50 [3] | EC50 [4] | EC50 ([3]; agonist mode) | Cell LXRβ efficacy ([4]; agonist mode) | Ki [2] | Cell LXRβ efficacy [4] | EC50 ([4]; agonist mode, read-out: Cell LXRβ EC50) | Ki [2, 5] | Cell LXRβ efficacy [4, 6] | EC50 ([4]; Biological Test Example 2, agonist mode, read-out: Cell LXRβ EC50) | EC50 [3, 6]
CC(C)[C@@H]1CN(c2cccc(S(C)(=O)=O)c2)CCN1c1ccc(C(F)(F)F)c(C2CC2)n1 [40-4, (R)-1-(6-cyclopropyl-5-(trifluoromethyl)pyridin-2-yl)-2-isopropyl-4-(3-(methylsulfonyl)phenyl)piperazine] | 14 nM | 7 nM | 1057 (80) % | 1060 nM | 214 nM | – | – | – | – | – | – | – | – | –
CC(C)[C@H]1CN(c2ccc(C#N)c(S(C)(=O)=O)c2)CCN1Cc1ccc(C(F)(F)F)cc1 [46-9, (S)-4-(3-isopropyl-4-(4-(trifluoromethyl)benzyl)piperazin-1-yl)-2-(methylsulfonyl)benzonitrile] | > 3330 nM | 231 nM | 2479 (57) % | – | 1080 nM | 2480 nM | 1078 (49) % | – | – | – | – | – | – | –
C[C@@H](c1ccc(C(F)(F)F)cc1)N1CCN(c2cccc(S(C)(=O)=O)c2)C[C@H]1c1ccccc1 [46-17, (R)-4-(3-(methylsulfonyl)phenyl)-2-phenyl-1-((S)-1-(4-(trifluoromethyl)phenyl)ethyl)piperazine] | > 3330 nM | – | – | > 20000 nM | > 20000 nM | – | – | > 2500 nM | – | – | – | – | – | –
C[C@H](c1ccc(C(F)(F)F)cc1)N1CCN(c2cccc(S(C)(=O)=O)c2)C[C@H]1c1ccccc1 [46-19, (R)-4-(3-(methylsulfonyl)phenyl)-2-phenyl-1-((R)-1-(4-(trifluoromethyl)phenyl)ethyl)piperazine] | > 3330 nM | – | – | > 20000 nM | 4350 nM | – | – | 1900 nM | 4348 (6) % | – | – | – | – | –
C[C@](O)(c1ccc(CN2CCN(c3cccc(S(C)(=O)=O)c3)C[C@H]2c2ccccc2)cc1)C(F)(F)F [46-29, (S)-1,1,1-trifluoro-2-(4-(((R)-4-(3-(methylsulfonyl)phenyl)-2-phenylpiperazin-1-yl)methyl)phenyl)propan-2-ol] | 6320 nM | – | – | > 20000 nM | > 20000 nM | – | – | 1860 nM | – | – | – | – | – | –
C[C@@](O)(c1ccc(CN2CCN(c3cccc(S(C)(=O)=O)c3)C[C@@H]2c2ccccc2)cc1)C(F)(F)F [46-31, (R)-1,1,1-trifluoro-2-(4-(((S)-4-(3-(methylsulfonyl)phenyl)-2-phenylpiperazin-1-yl)methyl)phenyl)propan-2-ol] | 6560 nM | – | – | > 20000 nM | > 20000 nM | – | – | 2170 nM | – | – | – | – | – | –
CC(C)[C@H]1CN(c2cccc(S(C)(=O)=O)c2)CCN1Cc1ccc(C(F)(F)F)nc1 [46-41, (S)-2-isopropyl-4-(3-(methylsulfonyl)phenyl)-1-((6-(trifluoromethyl)pyridin-3-yl)methyl)piperazine] | 1310 nM | 161 nM | 2425 (60) % | – | 559 nM | 2420 nM | 559 (68) % | – | – | – | – | – | – | –
CC(C)[C@H]1CN(c2ccc(CO)c(S(C)(=O)=O)c2)CCN1Cc1ccc(C(F)(F)F)cc1 [47-2, (S)-(4-(3-isopropyl-4-(4-(trifluoromethyl)benzyl)piperazin-1-yl)-2-(methylsulfonyl)phenyl)methanol] | 119 nM | 27 nM | 455 (70) % | 455 nM | 159 nM | – | – | – | 159 (65) % | – | – | – | – | –
CC(C)[C@H]1CN(c2ccc(CO)c(S(C)(=O)=O)c2)CCN1Cc1ccc(C(F)(F)F)o1 [47-5, (S)-(4-(3-isopropyl-4-((5-(trifluoromethyl)furan-2-yl)methyl)piperazin-1-yl)-2-(methylsulfonyl)phenyl)methanol] | 1090 nM | 109 nM | 1187 (62) % | 1190 nM | 248 nM | – | – | – | 248 (50) % | – | – | – | – | –
CC(C)[C@@H]1CN(c2ccc(F)c(S(C)(=O)=O)c2)CCN1C[C@H]1CC[C@@H](C(F)(F)F)CC1 [48-24, (R)-4-(4-fluoro-3-(methylsulfonyl)phenyl)-2-isopropyl-1-(((1s,4S)-4-(trifluoromethyl)cyclohexyl)methyl)piperazine] | 765 nM | 55 nM | 1347 (88) % | 1350 nM | – | – | 63% | – | – | 563 nM | – | – | – | –
CC(C)(O)[C@H]1CCC[C@@H](CN2CCN(c3cccc(S(C)(=O)=O)c3)CC2c2ccccc2)C1 (stereo partly drawn) [48-25, 2-((1S,3R)-3-((4-(3-(methylsulfonyl)phenyl)-2-phenylpiperazin-1-yl)methyl)cyclohexyl)propan-2-ol] | 1240 nM | – | – | > 20000 nM | > 20000 nM | – | – | 178 nM | – | – | – | – | – | –
COCc1ccc(N2CCN(C[C@H]3CC[C@H](C(F)(F)F)CC3)[C@@H](c3ccccc3)C2)cc1S(C)(=O)=O [48-49, (S)-4-(4-(methoxymethyl)-3-(methylsulfonyl)phenyl)-2-phenyl-1-(((1r,4S)-4-(trifluoromethyl)cyclohexyl)methyl)piperazine] | 13800 nM | – | 9842 (9) % | 9840 nM | – | – | – | – | – | – | 1490 nM | 12% | 1350 nM | –
CC(C)[C@H]1CN(c2cccc(S(C)(=O)=O)c2)CCN1CC1CCOCC1 [51-2, (S)-2-isopropyl-4-(3-(methylsulfonyl)phenyl)-1-((tetrahydro-2H-pyran-4-yl)methyl)piperazine] | > 3330 nM | – | – | – | 1360 nM | – | – | – | – | – | > 2500 nM | 1362 (7) % | – | > 20000 nM
CC(C)[C@H]1CN(c2cccc(S(C)(=O)=O)c2)CCN1CC1CCC(C)(C)OC1 (stereo partly drawn) [51-3, (2S)-1-((6,6-dimethyltetrahydro-2H-pyran-3-yl)methyl)-2-isopropyl-4-(3-(methylsulfonyl)phenyl)piperazine] | 3170 nM | – | 3460 (51) % | – | 590 nM | – | – | – | – | – | 482 nM | 590 (50) % | – | 3460 nM
CC(=O)NCc1cnc(N2CCN(c3ccc(F)c(S(C)(=O)=O)c3)C[C@H]2C(C)C)nc1C(F)(F)F [54-2, (R)-N-((2-(4-(4-fluoro-3-(methylsulfonyl)phenyl)-2-isopropylpiperazin-1-yl)-4-(trifluoromethyl)pyrimidin-5-yl)methyl)acetamide] | 863 nM | – | 3064 (29) % | 3060 nM | 812 nM | – | – | – | – | – | 81 nM | 812 (27) % | – | –
CC(C)[C@@H]1CN(c2ccc(F)c(S(C)(=O)=O)c2)CCN1c1cnc(C(F)(F)F)cn1 [Cpd No 7-44, (R)-2-(4-(4-fluoro-3-(methylsulfonyl)phenyl)-2-isopropylpiperazin-1-yl)-5-(trifluoromethyl)pyrazine] | 43 nM | 4 nM | 120 (97) % | – | 19 nM | 120 nM | – | – | 19 (118) % | – | – | – | – | –
CC(C)[C@@H]1CN(c2ccc(-c3nc(C#N)cs3)c(S(C)(=O)=O)c2)CCN1c1ncc(CO)c(C(F)(F)F)n1 [Cpd No 11-12, (R)-2-(4-(4-(5-(hydroxymethyl)-4-(trifluoromethyl)pyrimidin-2-yl)-3-isopropylpiperazin-1-yl)-2-(methylsulfonyl)phenyl)thiazole-4-carbonitrile] | 194 nM | 8 nM | 488 (67) % | – | 41 nM | 488 nM | 41 (73) % | – | – | – | – | – | – | –
CC(C)[C@@H]1CN(c2ccc(F)c(S(C)(=O)=O)c2)CCN1c1ncc([C@H](C)O)c(C(F)(F)F)n1 [Cpd No 12-2, (S)-1-(2-((R)-4-(4-fluoro-3-(methylsulfonyl)phenyl)-2-isopropylpiperazin-1-yl)-4-(trifluoromethyl)pyrimidin-5-yl)ethan-1-ol] | 233 nM | – | 746 (41) % | 746 nM | 117 nM | – | 117 (36) % | 11 nM | – | – | – | – | – | –
CC(C)[C@@H]1CN(c2ccc(F)c(S(C)(=O)=O)c2)CCN1c1ncc([C@@H](C)O)c(C(F)(F)F)n1 [Cpd No 12-3, (R)-1-(2-((R)-4-(4-fluoro-3-(methylsulfonyl)phenyl)-2-isopropylpiperazin-1-yl)-4-(trifluoromethyl)pyrimidin-5-yl)ethan-1-ol] | 168 nM | – | 769 (43) % | 769 nM | 84 nM | – | 84 (29) % | 6 nM | – | – | – | – | – | –
CC(=O)c1cnc(N2CCN(c3ccc(F)c(S(C)(=O)=O)c3)C[C@H]2C(C)C)nc1C(F)(F)F [Cpd No 13-1, (R)-1-(2-(4-(4-fluoro-3-(methylsulfonyl)phenyl)-2-isopropylpiperazin-1-yl)-4-(trifluoromethyl)pyrimidin-5-yl)ethan-1-one] | 62 nM | – | 253 (63) % | 253 nM | 49 nM | – | 49 (51) % | 3 nM | – | – | – | – | – | –
CC(C)[C@@H]1CN(c2ccc(F)c(S(C)(=O)=O)c2)CCN1c1cncc(C(F)(F)F)c1 [Cpd No 20-1, (R)-4-(4-fluoro-3-(methylsulfonyl)phenyl)-2-isopropyl-1-(5-(trifluoromethyl)pyridin-3-yl)piperazine] | 166 nM | 24 nM | 678 (90) % | 678 nM | 141 nM | – | 141 (75) % | – | – | – | – | – | – | –
CC(C)Oc1cc(C(F)(F)F)nc(N2CCN(c3ccc(F)c(S(C)(=O)=O)c3)C[C@H]2C(C)C)n1 [Cpd No 23-1, (R)-2-(4-(4-fluoro-3-(methylsulfonyl)phenyl)-2-isopropylpiperazin-1-yl)-4-isopropoxy-6-(trifluoromethyl)pyrimidine] | 1180 nM | – | – | – | > 20000 nM | > 20000 nM | – | 212 nM | – | – | – | – | – | –
